Data: patent US20220071939A1, “COMPOUNDS AND METHODS FOR THE TREATMENT OF POLYCYSTIC KIDNEY DISEASE (PKD)” (Resilio Therapeutics, LLC, priority 2018, published 2022)
Entries after “also recorded” stand apart in the source; their conditions may differ.

Columns and labels:
[1] = system: cysts formed from ADPKD donor cells in 3D cultures; experiment: 3D cyst formation assay (cyst number and cyst size by light microscopy); type: cell-based, human; settings: 3D culture
Description: (§1) Studies were performed on DFMO, the metabolic product of DFMO-prodrugs, in primary cell cultures of 2 dimensional (2D) cellular toxicity assays, 3 dimensional (3D) cyst formation assays and 3D tubulogenesis assays. DFMO was less than 10% toxic (90% viable) to human renal mixed epithelial cells in 2D cultures from Autosomal Dominant Polycystic Kidney Disease (ADPKD) donors up to 10 mM DFMO concentration as measured using a Cell Titer Go kit (FIG. 1). In the 3D cyst cultures, a population of mixed cells from a surgically resected cyst from a donor ADPKD kidney is combined with human kidney fibroblasts to grow cysts in a proprietary media (Discovery BioMed, Inc) that contains conditioned media from kidney fibroblasts and a Biogel matrix (DiscoveryBioMed). Using light microscopy to count cysts, the number of cysts formed in 3D cultures decreased in a dose-dependent fashion to 50% of controls at 10 mM DFMO (FIG. 2). Photomicrographs of cysts formed from ADPKD donor cells in 3D cultures show a time dependent change in cyst size.

[2] = system: human renal mixed epithelial cells in 2D cultures from Autosomal Dominant Polycystic Kidney Disease (ADPKD) donors; experiment: 2D cellular toxicity assay (viability by ATP release, Cell TiterGlo kit); type: cell-based
Description: as §1, with “FIG. 1 is a plot of cell viability as a function of difluoromethyl omithine (DFMO) concentration, showing the viability of primary ADPKD cells in 2D culture as measured by ATP release using Cell TiterGlo kit. Studies” for “Studies”, “2).” for “2). Photomicrographs of cysts formed from ADPKD donor cells in 3D cultures show a time dependent change in cyst size.”

[3] = system: normal human kidney (NHK) cells in 3D cultures; experiment: 3D tubulogenesis assay; type: cell-based; settings: 10 mM DFMO
Description: As a further proof of the potential utility of DFMO/DFMO-prodrugs in ADPKD patients, we also performed a tubulogenesis assay with normal human kidney cells in 3D cultures. Vehicle treated normal human kidney (NHK) cells form tubules by Day 3 in 3D cultures (FIG. 5) as do 10 mM DFMO-treated NHK cells, which also form tubules under the same conditions (FIG. 6).

[4] = 2D culture, up to 10 mM DFMO, Cell Titer Glo (ATP release), FIG. 1

For difluoromethylornithine [DFMO], the “cyst size over time” value ([1]; 10 mM DFMO, Day 0 to Day 4, FIG. 4) was “decreases with time; also recorded: slight increase on Day 1 followed by a steady decrease in cyst size by Day 4 when the cyst is smaller than on Day 0”, the “number of cysts formed, relative to controls” value ([1]; 10 mM DFMO, FIG. 2) was 50 % of controls and the “number of cysts versus DFMO concentration” value ([1]; FIG. 2) was “decrease in a dose-dependent manner”. For the same substance, the cell viability [2, 4] was 90%, the “toxicity to ADPKD cells” value [2, 4] was “less than 10%” and the “cell killing in 2D cultures” value ([2]; ADPKD cells, 2D cultures) was “not killed”. The “tubule formation” value ([3]; Day 3, FIG. 6) was “form tubules” and the “tubule numbers, maturation and elongation versus vehicle” value ([3]; visual comparison over time) was “appear similar”.
